According to patent publication US20160214996A1, “MACROCYCLIC COMPOUNDS FOR THE TREATMENT OF PROLIFERATIVE DISEASES” (CS Pharmasciences, Inc., priority 2013, published 2016):

Assays:
ALK wild type = biological target: T1, ALK wild type (Homo sapiens, UniProt Q9UM73); test: ALK wild type standard HTRF enzyme assay; assay type: biochemical; conditions: 0.5 nM ALK wild type, 30 μM ATP, 90 minutes at room temperature, read-out: IC50 (nM) ALK_wt
T1 construct: purchased Carna Biosciences (Japan)
Procedure: (§1) Wild type ALK and L1196M mutant ALK enzyme inhibition by the compounds of formula (I) was measured using an HTRF assay.
(§2) ALK wild type and ALK L1196M were acquired from Carna Biosciences (Japan). A standard HTRF kit (containing Eu-labeled TK1 antibody, XL665, biotin conjugated TK1 peptide, 5× enzymatic buffer and 1×HTRF detection buffer) were purchased from Cis-Bio International. Plates were read on an Envision multi-label plate reader (Perkin Elmer).
(§3) In both assays, the compounds were tested in 11 doses in duplicate with 3-fold dilution as the final concentrations were from 10 μM to 0.17 nM. Compound 13a was tested with lower top concentrations of 1 μM due to high potency.
The enzyme reaction mixture of ALK wild type standard HTRF assay contained 0.5 nM ALK wild type, 1 μM biotin-TK1 peptide, 30 μM ATP and 50 nM SEB in 1× enzymatic reaction buffer containing 50 mM (pH 7.0) HEPES, 5 mM MgCl2, 0.02% NaN3, 0.01% BSA, 0.1 mM Orthovanadate and 1 mM DTT at a final volume of 10 μl. The enzyme reaction was carried out at room temperature in white Proxiplate 384-Plus plate (PerkinElmer) for 90 minutes.
(§4) The detection reagents ([…]) were added at final concentrations of 2 nM antibody and 62.5 nM XL665. The plates were incubated at room temperature for 60 minutes and then read in the Envision plate reader.
(§5) The readouts were transformed into inhibition rate % by the equation of (Ratio-Min)/(Max-Min)*100%.

ALK L1196M = biological target: T2, ALK L1196M (Homo sapiens, UniProt Q9UM73, L1196M); test: ALK L1196M standard HTRF enzyme assay; assay type: biochemical; conditions: 0.15 nM ALK L1196M, 30 μM ATP, 60 minutes at room temperature, read-out: IC50 (nM) ALK_L1196M
T2 construct: purchased Carna Biosciences (Japan)
T2 sequence (Q9UM73 19-1620 L1196M): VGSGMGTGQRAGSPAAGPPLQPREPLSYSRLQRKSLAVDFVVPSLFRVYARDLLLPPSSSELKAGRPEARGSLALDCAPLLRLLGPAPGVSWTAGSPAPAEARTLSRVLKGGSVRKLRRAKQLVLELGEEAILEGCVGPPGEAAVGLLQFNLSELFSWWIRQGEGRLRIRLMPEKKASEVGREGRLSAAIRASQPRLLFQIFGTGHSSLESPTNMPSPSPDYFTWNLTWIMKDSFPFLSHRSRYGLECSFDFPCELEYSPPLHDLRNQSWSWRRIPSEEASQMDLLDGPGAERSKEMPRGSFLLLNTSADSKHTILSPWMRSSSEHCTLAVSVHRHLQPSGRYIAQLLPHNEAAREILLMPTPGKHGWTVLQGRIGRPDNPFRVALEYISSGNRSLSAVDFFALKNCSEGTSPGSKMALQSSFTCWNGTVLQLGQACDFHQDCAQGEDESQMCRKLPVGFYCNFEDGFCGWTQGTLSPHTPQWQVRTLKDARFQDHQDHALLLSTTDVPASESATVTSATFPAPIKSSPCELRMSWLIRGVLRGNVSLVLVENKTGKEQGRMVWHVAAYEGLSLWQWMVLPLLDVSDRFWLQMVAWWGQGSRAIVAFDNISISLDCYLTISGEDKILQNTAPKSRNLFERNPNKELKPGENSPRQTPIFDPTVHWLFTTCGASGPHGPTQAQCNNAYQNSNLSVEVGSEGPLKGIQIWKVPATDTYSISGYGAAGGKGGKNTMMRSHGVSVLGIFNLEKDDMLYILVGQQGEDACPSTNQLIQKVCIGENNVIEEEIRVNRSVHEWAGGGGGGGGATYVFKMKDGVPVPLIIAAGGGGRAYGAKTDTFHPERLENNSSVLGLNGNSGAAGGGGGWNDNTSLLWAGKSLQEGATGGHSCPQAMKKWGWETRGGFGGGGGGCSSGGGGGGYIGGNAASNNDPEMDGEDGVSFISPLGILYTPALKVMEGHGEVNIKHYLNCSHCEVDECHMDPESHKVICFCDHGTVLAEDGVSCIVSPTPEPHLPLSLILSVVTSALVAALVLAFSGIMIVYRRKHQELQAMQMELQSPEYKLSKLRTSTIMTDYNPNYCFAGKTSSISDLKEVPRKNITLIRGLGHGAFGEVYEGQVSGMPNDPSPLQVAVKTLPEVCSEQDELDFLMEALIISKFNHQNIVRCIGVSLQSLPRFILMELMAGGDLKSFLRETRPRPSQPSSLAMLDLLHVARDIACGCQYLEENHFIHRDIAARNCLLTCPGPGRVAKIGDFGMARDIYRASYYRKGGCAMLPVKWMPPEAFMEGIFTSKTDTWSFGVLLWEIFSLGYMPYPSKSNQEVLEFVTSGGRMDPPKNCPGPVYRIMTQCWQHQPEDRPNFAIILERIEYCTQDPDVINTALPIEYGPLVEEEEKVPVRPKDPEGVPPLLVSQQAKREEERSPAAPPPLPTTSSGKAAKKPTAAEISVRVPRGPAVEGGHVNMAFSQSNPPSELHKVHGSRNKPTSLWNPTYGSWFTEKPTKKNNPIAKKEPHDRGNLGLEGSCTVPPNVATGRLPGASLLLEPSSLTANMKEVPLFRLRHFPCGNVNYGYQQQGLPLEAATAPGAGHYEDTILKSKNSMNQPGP
Procedure: as §1, §2, §3
[…]. The enzyme reaction was carried out at room temperature in white Proxiplate 384-Plus plate (PerkinElmer) for 60 minutes.
as §4, §5

T1 sequence (Q9UM73 19-1620): as the sequence (Q9UM73 19-1620 L1196M) above, with M1178L counted along it

`CC1Oc2cc(cnc2N)-c2c(nn(C)c2C#N)N(C)C(=O)COc2ccc(F)cc21` (single isomer, unassigned) [Compound 16] showed an IC50 (ALK wild type) of 34.8 nM and an IC50 (ALK L1196M) of 529 nM.
With `CC1Oc2cc(cnc2N)-c2c(nn(C)c2C#N)N(C)C(=O)COc2ccc(F)cc21` (single isomer, unassigned) [Compound 17] the IC50 (ALK wild type) was 7430 nM.
In the case of `CC1Oc2cc(cnc2N)-c2c(nn(C)c2C#N)NC(=O)COc2ccc(F)cc21` (stereo not shown) [Compound 15], the IC50 (ALK wild type) is reported as 2370 nM.
